Assays:
Format in all cases: cell-based
[1] = system: beneficial oral bacteria and pathogenic oral bacteria; assay: Metabolic activity, prebiotic effect over the whole panel; conditions: 48 hrs; threshold value of 2
Procedure: (§1) The extent of metabolic activity of the tested bacteria in the presence of the above-mentioned acids after 24 hours and 48 hours was investigated through a high throughput phenotype microarray system (PM) for microbial cells (Biolog Inc.). Each PM can contain up to 95 different biochemical compounds (e.g. organic acids) that may act as substrates for bacteria as well as one negative control, not containing the substrates. Microarray plates were used in which the different wells of each plate were pre-loaded (by the manufacturer, Biolog Inc.) with different organic acids to be tested. Each bacterial species was tested using a separate microarray plate. Thus, a single bacterial species was tested with a variety of organic acids on each particular plate. The microarrays are based on redox technology, using cell respiration as a universal reporter. […] The observation of this color change indicates which of the substrates improve the metabolic activity and health of the cells.
(§2) Each bacterial species was collected from blood agar plates (incubated for 48 hours anaerobically at 37° C.) and transferred to an IF-0 Base inoculation fluid (Biolog Inc.), which is a nutritionally poor medium. […] A 1:5 dilution of this suspension was prepared by mixing 3 mL of the 42% transmittance cell suspension with 15 mL of an inoculation fluid (which inoculation fluid was formed by mixing 11.6 mL sterile water, 62.5 mL IF-0 base inoculation fluid and 0.9 mL of the tetrazolium dye “Biolog Redox Dye mix D”), resulting in a final cell density which was equal to 85% transmittance using a BioRad SmartSpec 3000 Photometer. For each of the acids tested, the microarray plate (obtained from the supplier (Biolog Inc.) with acid already present in the relevant wells in powder form) was directly inoculated with 100 μL/well of this 85% transmittance cell suspension.
(§3) All plates were incubated in an anaerobic atmosphere at 37° C. Color changes were measured spectrophotometrically at 492 nm (Thermo Scientific Multiskan Ascent) at 24 hrs and 48 hrs using the same plate at both time points.
(§4) The controls were also carried out three times, as above.

[2] = system: Actinomyces naeslundii; assay: Metabolic activity, Biolog phenotype microarray; conditions: A naeslundii
Procedure: as §1, §2, §3, §4

[3] = system: Streptococcus sobrinus; assay: Metabolic activity, Biolog phenotype microarray; conditions: S sobrinus
Procedure: as §1, §2, §3, §4

[4] = system: Veillonella parvula; assay: Metabolic activity, Biolog phenotype microarray; conditions: V parvula
Procedure: as §1, §2, §3, §4

[5] = system: Actinomyces viscosus; assay: Metabolic activity, Biolog phenotype microarray; conditions: A viscosus
Procedure: as §1, §2, §3, §4

[6] = system: Prevotella intermedia; assay: Metabolic activity, Biolog phenotype microarray; conditions: P intermedia
Procedure: as §1, §2, §3, §4

[7] = system: Fusobacterium nucleatum; assay: Metabolic activity, Biolog phenotype microarray; conditions: F nucleatum
Procedure: as §1, §2, §3, §4

[8] = system: Aggregatibacter actinomycetemcomitans; assay: Metabolic activity, Biolog phenotype microarray; conditions: A actinomycetemcomitans
Procedure: as §1, §2, §3, §4

[9] = system: Capnocytophaga sputigena; assay: Metabolic activity, Biolog phenotype microarray; conditions: C sputigena
Procedure: as §1, §2, §3, §4

[10] = system: Streptococcus salivarius; assay: Metabolic activity, Biolog phenotype microarray; conditions: S salivarius
Procedure: as §1, §2, §3, §4

[11] = system: Streptococcus sanguinis; assay: Metabolic activity, Biolog phenotype microarray; conditions: S sanguinis
Procedure: as §1, §2, §3, §4

[12] = system: Streptococcus gordonii; assay: Metabolic activity, Biolog phenotype microarray; conditions: S gordonii
Procedure: as §1, §2, §3, §4

[13] = system: Porphyromonas gingivalis; assay: Metabolic activity, Biolog phenotype microarray; conditions: P gingivalis
Procedure: as §1, §2, §3, §4

[14] = system: Streptococcus mutans; assay: Metabolic activity, Biolog phenotype microarray; conditions: S mutans
Procedure: as §1, §2, §3, §4

[15] = system: Tannerella forsythia; assay: Metabolic activity, Biolog phenotype microarray; conditions: T forsythia
Procedure: as §1, §2, §3, §4

[16] = system: Streptococcus mitis; assay: Metabolic activity, Biolog phenotype microarray; conditions: S mitis
Procedure: as §1, §2, §3, §4

CC(=O)O [Acetic acid, acetic acid]
prebiotic effect (metabolic activity) [1]: exhibited prebiotic effects

COC(=O)CCC(=O)O [Mono methyl succinate, mono methyl succinate]
metabolic activity, OD at 492 nm divided by OD of control (control = 1) ([2]; 24 hrs): 0.8880
metabolic activity, OD at 492 nm divided by OD of control (control = 1) ([2]; 48 hrs): 0.8882
metabolic activity, OD at 492 nm divided by OD of control (control = 1) ([3]; 24 hrs): 0.9731
metabolic activity, OD at 492 nm divided by OD of control (control = 1) ([3]; 48 hrs): 0.9118
metabolic activity, OD at 492 nm divided by OD of control (control = 1) ([4]; 24 hrs): 2.0008
metabolic activity, OD at 492 nm divided by OD of control (control = 1) ([4]; 48 hrs): 2.0023
metabolic activity, OD at 492 nm divided by OD of control (control = 1) ([5]; 24 hrs): 0.9911
metabolic activity, OD at 492 nm divided by OD of control (control = 1) ([5]; 48 hrs): 1.0314
metabolic activity, OD at 492 nm divided by OD of control (control = 1) ([6]; 24 hrs): 1.0197
metabolic activity, OD at 492 nm divided by OD of control (control = 1) ([6]; 48 hrs): 1.0603
metabolic activity, OD at 492 nm divided by OD of control (control = 1) ([7]; 24 hrs): 0.8349
metabolic activity, OD at 492 nm divided by OD of control (control = 1) ([7]; 48 hrs): 0.7615
metabolic activity, OD at 492 nm divided by OD of control (control = 1) ([8]; 24 hrs): 0.9321
metabolic activity, OD at 492 nm divided by OD of control (control = 1) ([8]; 48 hrs): 1.0787
metabolic activity, OD at 492 nm divided by OD of control (control = 1) ([9]; 24 hrs): 0.8328
metabolic activity, OD at 492 nm divided by OD of control (control = 1) ([9]; 48 hrs): 0.9842
metabolic activity, OD at 492 nm divided by OD of control (control = 1) ([10]; 24 hrs): 0.9553
metabolic activity, OD at 492 nm divided by OD of control (control = 1) ([10]; 48 hrs): 0.8641
metabolic activity, OD at 492 nm divided by OD of control (control = 1) ([11]; 24 hrs): 0.8806
metabolic activity, OD at 492 nm divided by OD of control (control = 1) ([11]; 48 hrs): 0.8453
metabolic activity, OD at 492 nm divided by OD of control (control = 1) ([12]; 24 hrs): 0.8102
metabolic activity, OD at 492 nm divided by OD of control (control = 1) ([12]; 48 hrs): 0.7556
metabolic activity, OD at 492 nm divided by OD of control (control = 1) ([13]; 24 hrs): 0.7502
metabolic activity, OD at 492 nm divided by OD of control (control = 1) ([13]; 48 hrs): 0.6747
metabolic activity, OD at 492 nm divided by OD of control (control = 1) ([14]; 24 hrs): 0.9482
metabolic activity, OD at 492 nm divided by OD of control (control = 1) ([14]; 48 hrs): 0.8864
metabolic activity, OD at 492 nm divided by OD of control (control = 1) ([15]; 24 hrs): 0.8922
metabolic activity, OD at 492 nm divided by OD of control (control = 1) ([15]; 48 hrs): 0.8775
metabolic activity, OD at 492 nm divided by OD of control (control = 1) ([16]; 24 hrs): 1.0231
metabolic activity, OD at 492 nm divided by OD of control (control = 1) ([16]; 48 hrs): 0.9293

— patent publication US10945932B2, “Prebiotic oral care compositions containing carboxylic acids” (COLGATE-PALMOLIVE COMPANY, priority 2013, dated 2021)
